{"source": "patent US20130203649A1", "about": "“INHIBITORS OF TLR SIGNALING BY TARGETING TIR DOMAIN INTERFACES” (UNIVERSITY OF MARYLAND, BALTIMORE, priority 2012, published 2013)", "key": {"TLR2/TLR6 heterodimer": {"target": "T1, TLR2/TLR6 heterodimer (Mus musculus, UniProt Q9QUN7)", "T1 construct": "endogenous in cells; host or cells: thioglycollate-elicited mouse peritoneal macrophages", "T1 sequence (Q9QUN7 25-784, one chain of several)": "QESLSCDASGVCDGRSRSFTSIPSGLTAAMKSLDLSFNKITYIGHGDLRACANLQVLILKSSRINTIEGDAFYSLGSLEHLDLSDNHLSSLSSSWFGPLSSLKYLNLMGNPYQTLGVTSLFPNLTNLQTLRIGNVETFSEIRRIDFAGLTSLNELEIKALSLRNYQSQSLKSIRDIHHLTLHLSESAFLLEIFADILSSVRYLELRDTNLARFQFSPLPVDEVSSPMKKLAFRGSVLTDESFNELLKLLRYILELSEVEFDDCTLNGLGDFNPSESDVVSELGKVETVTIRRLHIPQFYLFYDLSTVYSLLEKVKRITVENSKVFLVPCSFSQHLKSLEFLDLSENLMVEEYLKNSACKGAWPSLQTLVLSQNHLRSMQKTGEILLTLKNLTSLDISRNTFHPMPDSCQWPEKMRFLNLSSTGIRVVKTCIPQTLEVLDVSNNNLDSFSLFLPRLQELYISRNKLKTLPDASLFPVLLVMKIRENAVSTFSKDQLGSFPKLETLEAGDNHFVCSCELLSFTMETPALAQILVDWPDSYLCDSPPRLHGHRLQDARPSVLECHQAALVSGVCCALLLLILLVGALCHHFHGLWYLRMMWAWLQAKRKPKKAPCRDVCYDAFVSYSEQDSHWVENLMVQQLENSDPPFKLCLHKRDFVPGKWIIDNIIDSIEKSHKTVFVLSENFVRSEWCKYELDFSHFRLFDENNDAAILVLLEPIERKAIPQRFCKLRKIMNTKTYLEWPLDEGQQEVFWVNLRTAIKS", "experiment": "P2C-induced cytokine mRNA expression in mouse macrophages", "assay_type": "cell-based", "conditions": "P2C 50 ng/ml, 1 h", "description": "Total cellular RNA was isolated using Tripure from Roche (San Francisco, Calif.) following manufacture's protocol. RNA was then reverse transcribed using AMV Reverse Transcriptase from Promega (Madison, Wis.) with poly-T priming as per manufacturer's directions. cDNA was then quantified by real-time PCR using Applied Biosystems Fast SYBR Green PCR Master Mix and an ABI Prism 7500HT cycler. Primers used for detection: hypoxanthine phosphoribosyltransferase (HPRT) (forward: […] (SEQ ID NO:51), reverse: […] (SEQ ID NO:52)), TNFα (forward: […] (SEQ ID NO:53), reverse: […] (SEQ ID NO:54)), IL-1β (forward: […] (SEQ ID NO:55), reverse: […] (SEQ ID NO:56)), IFNβ (forward: […] (SEQ ID NO:57), reverse: CTCGGACCACCATCCAGG (SEQ ID NO:58)) and RANTES (forward: […] (SEQ ID NO:59), reverse: […] (SEQ ID NO:60)). The primers were designed using Primer Express 2.0 (Applied Biosystems). Using HPRT as reference, the ΔCt method was used to calculate relative gene expression. One-way ANOVA was preformed, as well as Dunnett's multiple comparison post hoc test with a p≦0.01 selected as the level of significance.\nProtein-free Escherichia coli K235 LPS was used at final concentration of 10 ng/ml to stimulate cells. S-[2,3-bis(palmitoyloxy)-(2-RS)-propyl]-N-palmitoyl-(R)-Cys-Ser-Lys4-OH (P3C) and S-[2,3-bis(palmitoyloxy)-(2-RS)-propyl]-[R]-Cys-Ser-Lys4-OH (P2C) were purchased from EMC microcollections GmbH (Tubingen, Germany) and used for cell stimulation at 500 and 50 ng/ml, respectively. Phospho-ERK1/2 and phospho-JNK1/2 rabbit Abs were obtained from Cell Signaling Technology, Inc. β-actin rabbit Ab were from SantaCruz Biotechnology, Inc.\nBecause of the role TRAP plays in TLR2 signaling, TIRAP TIR-derived decoy peptide effects on TLR2-induced cytokine mRNA expression were examined. Thioglycollate-elicited mouse macrophages were stimulated either by P2C, an agonist that induces signaling through TLR2/TLR6 heterodimerization, or P3C, a TLR2/TLR1 agonist, and effects of TIRAP TR-derived decoy peptides on induction of cytokine mRNA were examined. […] To confirm the inhibitory effect of TR3 and TR6 on P3C-induced signaling, IL-6 and TNF-α concentration was measured in macrophage supernatants collected 5 h after stimulation of cells with P3C. […] Concordantly, both TR3 and TR6 diminished the P3C-induced ERK phosphorylation (FIG. 3D).\nC57BL/6J mice were obtained from The Jackson Laboratory (BarHarbor, Me.). Harvesting, culturing, and stimulation of peritoneal macrophages were described in previous publications (1, 18, 19). Escherichia coli K235 LPS (34) was used at the final concentration of 100 ng/ml. The 2,3-bis(palmitoyloxy)-(2-RS)-propyl-N-palmitoyl-(R)-Cys-Ser-Lys4-OH (P3C) and S[2,3-bis(palmitoyloxy)-(2-RS)-propyl]-[R]-Cys-Ser-Lys4-OH (P2C) (EMC Microcollections, Tubingen, Germany) were used at 500 and 50 ng/ml, respectively. Oligonucleotide (ODN) 1668 and low m.w. polyinosinic-polycytidylic acid [poly(I:C)] in complex with LyoVec were obtained from InvivoGen; these agonists were used at 2.5 μM and 400 ng/ml, respectively."}, "TLR2/TLR1 heterodimer": {"target": "T2, TLR2/TLR1 heterodimer (Mus musculus, UniProt Q9QUN7)", "T2 construct": "endogenous in cells; host or cells: thioglycollate-elicited mouse peritoneal macrophages", "T2 sequence (Q9QUN7 25-784, one chain of several)": "as above", "experiment": "P3C-induced ERK phosphorylation in primary macrophages (Western analysis)", "assay_type": "cell-based", "conditions": "P3C 30 min", "procedure": "FIG. 3. Effect of TIRAP decoy peptides on TLR2 signaling. Thioglycollate-elicited macrophages were incubated in the presence of 20 (black columns) or 40 μM (open columns) of a decoy peptide for 30 min prior to stimulation with P3C (500 ng/ml) (A and C) or P2C (50 ng/ml) (B). Cytokine mRNA expression was measured 1 h after TLR2 stimulation and is normalized to the expression of HPRT gene. C. IL-6 and TNF-α were measured by ELISA in macrophage supernatants collected 5 h after P3C (500 ng/ml) stimulation. D. Peptides TR3 and TR6 inhibit ERK activation induced by TLR2 agonist, P3C. ERK phosphorylation was measured by Western analysis in primary macrophage stimulated by P3C for 30 min.\nCellular protein extracts were isolated by addition of 240 μL per well cold lysate buffer (20 mM Tris, 50 mM NaCl, 1.5 mM MgCl2, 2 mM EDTA, 10 mM NaF, 2 Mm DTT, 1 mM Na3VO4, 1% Triton). Cells were incubated with lysis solution for 30 min on agitator at 4° C. […] After quantification using BioRad protein assay, protein samples were added to Laemmli buffer and then boiled for 10 min. […]\nBecause of the role TRAP plays in TLR2 signaling, TIRAP TIR-derived decoy peptide effects on TLR2-induced cytokine mRNA expression were examined. […] To confirm the inhibitory effect of TR3 and TR6 on P3C-induced signaling, IL-6 and TNF-α concentration was measured in macrophage supernatants collected 5 h after stimulation of cells with P3C. […]"}}, "note": "“Also recorded” adds a separate entry of the source. No end group written: not given here."}
{"sequence": "RQIKIWFQNRRMKWKKEGSQASLRCF [TR3]", "values": [{"measurement": "P2C-induced TNFα and IL-1β mRNA", "setting": "TLR2/TLR6 heterodimer; 20 μM peptide", "result": "significantly less"}, {"measurement": "P2C-induced TNFα and IL-1β mRNA", "setting": "TLR2/TLR6 heterodimer; 40 μM peptide", "result": "did not affect significantly"}, {"measurement": "P3C-induced ERK phosphorylation", "setting": "TLR2/TLR1 heterodimer", "result": "diminished; also recorded: inhibit"}]}
{"sequence": "RQIKIWFQNRRMKWKKPGFLRDPWCKYQML [TR6]", "values": [{"measurement": "P2C-induced TNFα and IL-1β mRNA", "setting": "TLR2/TLR6 heterodimer; 20 μM peptide", "result": "significantly less"}, {"measurement": "P2C-induced TNFα and IL-1β mRNA", "setting": "TLR2/TLR6 heterodimer; 40 μM peptide", "result": "did not affect significantly"}, {"measurement": "P3C-induced ERK phosphorylation", "setting": "TLR2/TLR1 heterodimer", "result": "diminished; also recorded: inhibit"}]}
